Experimental findings from ChEMBL document CHEMBL4152365, “Discovery of DS-6930, a potent selective PPARγ modulator. Part I: Lead identification” (Bioorg Med Chem, 2018) are described below.

One may read the logD as lipophilicity at a set pH, counting ionised and neutral species. In general, EC50 refers to the concentration giving half of the maximal effect.

In brackets after ≈: the same amount, converted by molar mass.

System in one data set: not listed separately
Kind of data set: Metabolic stability in human liver microsomes after 0.5 hrs. In kind it is ADME, microsome. The conditions noted are these: read-out: Stability.
For `Cl.Cn1c(COc2cccc(C(=O)O)c2)nc2ccc(Oc3ccc(F)c(F)c3)cc21`, the remaining at 0.5 h was determined as 100%.

`Cc1ccc(F)c(Oc2ccc3nc(COc4cccc(C(=O)O)c4)n(C)c3c2)c1`: the remaining at 0.5 h stood at 83%.

For `Cn1c(COc2cccc(C(=O)O)c2)nc2ccc(Oc3ccc(F)cc3F)cc21`, the remaining at 0.5 h is 100%.

Take `Cc1cc(F)cc(Oc2ccc3nc(COc4cccc(C(=O)O)c4)n(C)c3c2)c1`: the remaining at 0.5 h was 100%.

Turning to `Cl.Cn1c(COc2cccc(C(=O)O)c2)nc2ccc(Oc3ccc4c(c3)CCO4)cc21`, the remaining at 0.5 h was determined as 87%.

`Cn1c(COc2cccc(C(=O)O)c2)nc2ccc(Oc3ccc4ccoc4c3)cc21`: the remaining at 0.5 h amounted to 100%.

The subject of a further data set is Mus musculus. As to the kind of experiment: Glucose-lowering effect in hyperglycemic KK/Ta mouse assessed as reduction in plasma glucose level at 30 mg/kg/day, po administered through diet for 3 days relative to control.
Settings: not given
In kind it is functional. Set-up: scale not given: the % may be the effect or the level left.
As to `Cl.Cn1c(COc2cccc(C(=O)O)c2)nc2ccc(Oc3ccc(F)c(F)c3)cc21`, the Activity turned out to be 56%.

Turning to `Cc1ccc(F)c(Oc2ccc3nc(COc4cccc(C(=O)O)c4)n(C)c3c2)c1`, the Activity was determined as 49.4%.

Regarding `Cn1c(COc2cccc(C(=O)O)c2)nc2ccc(Oc3ccc(F)cc3F)cc21`, the Activity stood at 37.6%.

Regarding `Cc1cc(F)cc(Oc2ccc3nc(COc4cccc(C(=O)O)c4)n(C)c3c2)c1`, the Activity is given as 58.3%.

With `Cn1c(COc2cccc(C(=O)O)c2)nc2ccc(Oc3ccc4ccoc4c3)cc21`, the Activity amounted to 48.3%.

Another data set deals with T1, Peroxisome proliferator-activated receptor alpha (Homo sapiens) (UniProt Q07869).
T1 sequence (whole entry): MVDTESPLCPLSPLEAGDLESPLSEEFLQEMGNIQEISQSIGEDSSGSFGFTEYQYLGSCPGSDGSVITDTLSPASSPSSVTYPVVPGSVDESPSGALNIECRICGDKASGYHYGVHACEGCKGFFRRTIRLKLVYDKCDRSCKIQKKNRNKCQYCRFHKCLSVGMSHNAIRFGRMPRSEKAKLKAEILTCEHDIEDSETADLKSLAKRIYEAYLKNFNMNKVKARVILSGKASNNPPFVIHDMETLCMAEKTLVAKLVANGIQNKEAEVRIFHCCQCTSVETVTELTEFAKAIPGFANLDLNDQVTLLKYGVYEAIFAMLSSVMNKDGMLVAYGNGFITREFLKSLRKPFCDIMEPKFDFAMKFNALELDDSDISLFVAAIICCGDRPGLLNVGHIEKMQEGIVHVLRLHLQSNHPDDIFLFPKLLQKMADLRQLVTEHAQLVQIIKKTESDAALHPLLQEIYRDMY
As to the kind of experiment: Agonist activity at recombinant human GAL4-DBD fused PPARalpha LBD expressed in COS7 cells at 10 uM after 24 hrs by luciferase reporter gene assay relative to 2-(4-tert-Butylphenoxy)-3-[4-[2-[(4-pyridin-2-ylbenzoyl)amino]ethoxy]. In kind it is cell-based.
Settings: not given
For the molecule `Cl.Cn1c(COc2cccc(C(=O)O)c2)nc2ccc(Oc3ccc(F)c(F)c3)cc21`, the Emax amounted to 39%.

For `Cc1ccc(F)c(Oc2ccc3nc(COc4cccc(C(=O)O)c4)n(C)c3c2)c1`, the Emax is 37%.

As for `Cn1c(COc2cccc(C(=O)O)c2)nc2ccc(Oc3ccc(F)cc3F)cc21`, the Emax came to 17%.

With `Cc1cc(F)cc(Oc2ccc3nc(COc4cccc(C(=O)O)c4)n(C)c3c2)c1`, the Emax came out at 29%.

Regarding `Cl.Cn1c(COc2cccc(C(=O)O)c2)nc2ccc(Oc3ccc4c(c3)CCO4)cc21`, the Emax was 8%.

`Cn1c(COc2cccc(C(=O)O)c2)nc2ccc(Oc3ccc4ccoc4c3)cc21`: the Emax was 37%.

System in a further data set: not listed separately
Kind of data set: Aqueous thermodynamic solubility of the compound in pH 6.8 solution up to 4 hrs by HPLC-UV analysis. It is filed as physicochemical. As to conditions: read-out: Therm_solubility.
For `Cc1ccc(F)c(Oc2ccc3nc(COc4cccc(C(=O)O)c4)n(C)c3c2)c1`, the solubility thermodynamic at 4 h was 11 µg/mL (≈ 27.1 µM).

Regarding `Cn1c(COc2cccc(C(=O)O)c2)nc2ccc(Oc3ccc(F)cc3F)cc21`, the solubility thermodynamic at 4 h was determined as 11 µg/mL (≈ 26.8 µM).

Consider `Cc1cc(F)cc(Oc2ccc3nc(COc4cccc(C(=O)O)c4)n(C)c3c2)c1`, for which the solubility thermodynamic at 4 h worked out at 0.5 µg/mL (≈ 1.23 µM).

Regarding `Cl.Cn1c(COc2cccc(C(=O)O)c2)nc2ccc(Oc3ccc4c(c3)CCO4)cc21`, the solubility thermodynamic at 4 h was 7.6 µg/mL.

For the molecule `Cn1c(COc2cccc(C(=O)O)c2)nc2ccc(Oc3ccc4ccoc4c3)cc21`, the solubility thermodynamic at 4 h came to 0.8 µg/mL (≈ 1.93 µM).

In a further data set the test system is Mus musculus. Kind of data set: Toxicity in hyperglycemic KK/Ta mouse assessed as body weight gain at 30 mg/kg/day, po administered through diet for 3 days relative to control. In kind it is organism-based. As to conditions: in vivo, 72 h.
For `Cl.Cn1c(COc2cccc(C(=O)O)c2)nc2ccc(Oc3ccc(F)c(F)c3)cc21`, the Activity is 3.4%.

On to `Cc1ccc(F)c(Oc2ccc3nc(COc4cccc(C(=O)O)c4)n(C)c3c2)c1`, for which the Activity is recorded as 1.6%.

Regarding `Cn1c(COc2cccc(C(=O)O)c2)nc2ccc(Oc3ccc(F)cc3F)cc21`, the Activity came out at 3.7%.

`Cc1cc(F)cc(Oc2ccc3nc(COc4cccc(C(=O)O)c4)n(C)c3c2)c1`: the Activity is listed as 1.7%.

For the molecule `Cn1c(COc2cccc(C(=O)O)c2)nc2ccc(Oc3ccc4ccoc4c3)cc21`, the Activity amounted to 2.5%.

System in the next data set: not listed separately
Kind of data set: 1-octanol/PBS distribution co-efficient, log D of the compound at […] at pH 7.4 after 30 mins by HPLC-MS/MS analysis. It is filed as physicochemical.
Settings: not given
For the molecule `Cl.Cn1c(COc2cccc(C(=O)O)c2)nc2ccc(Oc3ccc(F)c(F)c3)cc21`, the logD at 0.5 h amounted to 2.

In turn, `Cc1ccc(F)c(Oc2ccc3nc(COc4cccc(C(=O)O)c4)n(C)c3c2)c1` displayed a logD at 0.5 h of 2.4.

`Cn1c(COc2cccc(C(=O)O)c2)nc2ccc(Oc3ccc(F)cc3F)cc21` displayed a logD at 0.5 h of 1.9.

In turn, `Cc1cc(F)cc(Oc2ccc3nc(COc4cccc(C(=O)O)c4)n(C)c3c2)c1` showed a logD at 0.5 h of 2.7.

Molecule `Cl.Cn1c(COc2cccc(C(=O)O)c2)nc2ccc(Oc3ccc4c(c3)CCO4)cc21` returned a logD at 0.5 h of 1.7.

Molecule `Cn1c(COc2cccc(C(=O)O)c2)nc2ccc(Oc3ccc4ccoc4c3)cc21` returned a logD at 0.5 h of 2.4.

System in a further data set: not listed separately
As to the kind of experiment: Plasma concentration in hyperglycemic KK/Ta mouse at 30 mg/kg/day, po administered through diet for 3 days measured on day 3 post last dose. It is filed as ADME, organism-based.
Settings: not given
The molecule `Cl.Cn1c(COc2cccc(C(=O)O)c2)nc2ccc(Oc3ccc(F)c(F)c3)cc21` gave a concentration at 72 h of 160 ng/mL.

`Cc1ccc(F)c(Oc2ccc3nc(COc4cccc(C(=O)O)c4)n(C)c3c2)c1` returned a concentration at 72 h of 120 ng/mL.

`Cn1c(COc2cccc(C(=O)O)c2)nc2ccc(Oc3ccc(F)cc3F)cc21` yielded a concentration at 72 h of 370 ng/mL.

`Cc1cc(F)cc(Oc2ccc3nc(COc4cccc(C(=O)O)c4)n(C)c3c2)c1` displayed a concentration at 72 h of 190 ng/mL.

In turn, `Cn1c(COc2cccc(C(=O)O)c2)nc2ccc(Oc3ccc4ccoc4c3)cc21` had a concentration at 72 h of 380 ng/mL.

Another data set addresses T2, Peroxisome proliferator-activated receptor gamma (Homo sapiens) (UniProt P37231).
T2 sequence (whole entry): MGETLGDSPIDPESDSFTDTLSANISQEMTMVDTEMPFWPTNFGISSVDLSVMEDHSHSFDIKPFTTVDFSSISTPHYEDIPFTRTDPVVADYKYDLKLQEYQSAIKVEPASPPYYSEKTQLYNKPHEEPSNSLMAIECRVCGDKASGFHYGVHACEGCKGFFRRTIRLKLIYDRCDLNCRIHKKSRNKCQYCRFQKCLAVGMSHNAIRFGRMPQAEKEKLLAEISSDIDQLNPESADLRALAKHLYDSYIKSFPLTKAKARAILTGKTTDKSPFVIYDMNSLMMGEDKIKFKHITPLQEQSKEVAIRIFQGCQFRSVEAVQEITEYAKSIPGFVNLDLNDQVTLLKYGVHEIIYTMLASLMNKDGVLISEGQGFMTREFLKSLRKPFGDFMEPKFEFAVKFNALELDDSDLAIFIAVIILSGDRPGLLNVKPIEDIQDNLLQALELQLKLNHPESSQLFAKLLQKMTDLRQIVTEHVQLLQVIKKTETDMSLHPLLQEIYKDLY
Kind of data set: Agonist activity at recombinant human GAL4-DBD fused PPARgamma LBD expressed in COS7 cells at 10 uM after 24 hrs by luciferase reporter gene assay relative to rosiglitazone. In kind it is cell-based.
Settings: not given
As to `Cl.Cn1c(COc2cccc(C(=O)O)c2)nc2ccc(Oc3ccc(F)c(F)c3)cc21`, the Emax came out at 71%.

Turning to `Cc1ccc(F)c(Oc2ccc3nc(COc4cccc(C(=O)O)c4)n(C)c3c2)c1`, the Emax stood at 111%.

Turning to `Cn1c(COc2cccc(C(=O)O)c2)nc2ccc(Oc3ccc(F)cc3F)cc21`, the Emax is 77%.

Regarding `Cc1cc(F)cc(Oc2ccc3nc(COc4cccc(C(=O)O)c4)n(C)c3c2)c1`, the Emax was found to be 84%.

As to `Cl.Cn1c(COc2cccc(C(=O)O)c2)nc2ccc(Oc3ccc4c(c3)CCO4)cc21`, the Emax was found to be 60%.

For the molecule `Cn1c(COc2cccc(C(=O)O)c2)nc2ccc(Oc3ccc4ccoc4c3)cc21`, the Emax came to 79%.

The next data set deals with T3, Peroxisome proliferator-activated receptor gamma (Homo sapiens, UniProt P37231).
T3 sequence (P37231 whole entry): T2 sequence (whole entry)
As to the kind of experiment: Agonist activity at recombinant human GAL4-DBD fused PPARgamma LBD expressed in COS7 cells after 24 hrs by luciferase reporter gene assay. In kind it is cell-based.
Settings: not given
(In general: In a reporter assay the amount or activity of a reporter protein is the signal.)
Consider `Cl.Cn1c(COc2cccc(C(=O)O)c2)nc2ccc(Oc3ccc(F)c(F)c3)cc21`, for which the EC50 came to 118 nM.

`Cc1ccc(F)c(Oc2ccc3nc(COc4cccc(C(=O)O)c4)n(C)c3c2)c1`: the EC50 was 139 nM.

As to `Cn1c(COc2cccc(C(=O)O)c2)nc2ccc(Oc3ccc(F)cc3F)cc21`, the EC50 is 143 nM.

Regarding `Cc1cc(F)cc(Oc2ccc3nc(COc4cccc(C(=O)O)c4)n(C)c3c2)c1`, the EC50 worked out at 21 nM.

Take `Cl.Cn1c(COc2cccc(C(=O)O)c2)nc2ccc(Oc3ccc4c(c3)CCO4)cc21`: the EC50 is 87 nM.

For the molecule `Cn1c(COc2cccc(C(=O)O)c2)nc2ccc(Oc3ccc4ccoc4c3)cc21`, the EC50 stood at 188 nM.

Another data set deals with T4, Peroxisome proliferator-activated receptor alpha (Homo sapiens, UniProt Q07869).
T4 sequence (Q07869 whole entry): T1 sequence (whole entry)
Kind of data set: Agonist activity at recombinant human GAL4-DBD fused PPARalpha LBD expressed in COS7 cells after 24 hrs by luciferase reporter gene assay. It is filed as cell-based.
Settings: not given
Take `Cl.Cn1c(COc2cccc(C(=O)O)c2)nc2ccc(Oc3ccc(F)c(F)c3)cc21`: the EC50 was more than 10000 nM.

As to `Cc1ccc(F)c(Oc2ccc3nc(COc4cccc(C(=O)O)c4)n(C)c3c2)c1`, the EC50 is more than 10000 nM.

In the case of `Cn1c(COc2cccc(C(=O)O)c2)nc2ccc(Oc3ccc(F)cc3F)cc21`, the EC50 was more than 10000 nM.

For `Cc1cc(F)cc(Oc2ccc3nc(COc4cccc(C(=O)O)c4)n(C)c3c2)c1`, the EC50 is more than 10000 nM.

As for `Cl.Cn1c(COc2cccc(C(=O)O)c2)nc2ccc(Oc3ccc4c(c3)CCO4)cc21`, the EC50 was more than 10000 nM.

For the molecule `Cn1c(COc2cccc(C(=O)O)c2)nc2ccc(Oc3ccc4ccoc4c3)cc21`, the EC50 was more than 10000 nM.
